Test systems include OVCAR-8; 786-0; IGROV-1; COLO 205; LXFL 529; SNB-19; OVCAR-4; OVCAR-3; SN12C; HCT-116; UACC-257; CCRF-CEM; ACHN; TK-10; KM12; NCI-H23; NCI-H522; T47D; MDA-N; NCI/ADR-RES.
Holding throughout (test): inhibition of tumour cell growth, NCI panel, 48 h

Experimental findings from ChEMBL document CHEMBL1201862, “PubChem BioAssay data set” (2004) are described below.

Structures are written as SMILES.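 Tested at 5 concentrations; 48 h exposure; 96-well plates; endpoints linearly interpolated, else capped at highest concentration. GI50 is the concentration that inhibits growth by half.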 Calls of active or inactive are those of the source. Cut-off read from the data, not from the text of the source: active = GI50 up to about 1.1 µM and inactive = higher. Bounds are passed on as bounds.

On to `COC(=O)CC1NC(=O)[C@@H]1C(C)O` (stereo partly specified), for which the GI50 in the assay with OVCAR-8, in the assay on 786-0, with IGROV-1, in the assay on COLO 205, in the assay on LXFL 529 and in the assay on SNB-19 was > 100 µM (inactive) each time. The GI50 with OVCAR-4, with OVCAR-3, in the assay on SN12C, with HCT-116, in the assay on UACC-257 and with CCRF-CEM was > 100 µM (inactive) each time. Besides, the GI50 with ACHN and with TK-10 was > 100 µM (inactive) throughout.

In the case of `CC(C)(C)[Si](C)(C)O/N=C\c1cccc(O[Si](C)(C)C(C)(C)C)c1`, the GI50 was 20 µM (inactive) in the assay with OVCAR-8; 19.2 µM (inactive) with 786-0; 18.6 µM (inactive) in the assay on IGROV-1; 18 µM (inactive) with KM12; 17.8 µM (inactive) with COLO 205; 15.7 µM (inactive) with LXFL 529. The GI50 in the assay with SNB-19 was 20.7 µM (inactive); in the assay with OVCAR-4, 16.1 µM (inactive); in the assay on OVCAR-3, 16.2 µM (inactive); in the assay with SN12C it was 19.9 µM (inactive); in the assay on HCT-116, 18.6 µM (inactive); in the assay with UACC-257, 21.9 µM (inactive). Moreover, the GI50 with CCRF-CEM is 19.3 µM (inactive); with ACHN, 17.9 µM (inactive); in the assay on TK-10, 24.5 µM (inactive).

With `O=C1/C(=C/c2ccccc2)CCCC/C1=C\c1ccccc1`, the GI50 with OVCAR-8 was 75.3 µM (inactive); in the assay on NCI-H23 it was 45.1 µM (inactive); in the assay with 786-0, 65.8 µM (inactive); with IGROV-1 it was > 100 µM (inactive); in the assay with KM12, 41.2 µM (inactive); with COLO 205, 39.2 µM (inactive). In addition, the GI50 in the assay on LXFL 529 is 55.2 µM (inactive); in the assay on SNB-19, > 100 µM (inactive); in the assay with OVCAR-4 it was 75 µM (inactive); with OVCAR-3, > 100 µM (inactive); in the assay on SN12C it was > 100 µM (inactive); with HCT-116 it was 40.6 µM (inactive). For the same molecule, the GI50 is 41.2 µM (inactive) in the assay with UACC-257, 78.7 µM (inactive) with ACHN and > 100 µM (inactive) in the assay on TK-10.

Consider `CC(C)(C)C(=O)/C=C/c1cccc(Oc2ccccc2)c1`, for which the GI50 with OVCAR-8 is 13.6 µM (inactive); with NCI-H23, > 10 µM (inactive); with 786-0, 16.7 µM (inactive); with IGROV-1, 28.2 µM (inactive); in the assay on KM12, 11.6 µM (inactive); in the assay on LXFL 529, 18.1 µM (inactive). Further, the GI50 is 15.5 µM (inactive) with SNB-19; 15.3 µM (inactive) in the assay with NCI-H522; 13.2 µM (inactive) in the assay on SN12C; 10.5 µM (inactive) in the assay with HCT-116; 14 µM (inactive) in the assay with UACC-257; 4.08 µM (inactive) with CCRF-CEM. Also, the GI50 with ACHN was 15.2 µM (inactive); in the assay with TK-10, > 10 µM (inactive).

With `COC1[C@@H](OC(C)=O)[C@@H](NC(=O)C(Cl)(Cl)Cl)C(I)[C@@H](N2C(=O)c3ccccc3C2=O)[C@H]1OC` (stereo partly specified), the GI50 in the assay on OVCAR-8 was > 100 µM (inactive); in the assay with NCI-H23, > 100 µM (inactive); with 786-0 it was > 100 µM (inactive); in the assay on IGROV-1, > 100 µM (inactive); in the assay with KM12, 6.59 µM (inactive); in the assay with COLO 205 it was > 100 µM (inactive). Besides, the GI50 was > 100 µM (inactive) with LXFL 529; > 100 µM (inactive) with SNB-19; 72.3 µM (inactive) with OVCAR-4; > 100 µM (inactive) in the assay on NCI-H522; > 100 µM (inactive) in the assay with SN12C; > 100 µM (inactive) with HCT-116. In addition, the GI50 in the assay with UACC-257, in the assay with CCRF-CEM and in the assay with ACHN was > 100 µM (inactive) throughout.

Regarding `CCCCN(CCCC)C(=O)/C(CC(=O)c1cccc2ccccc12)=N\NC(=O)c1cc2ccccc2cc1O`, the GI50 is 16.4 µM (inactive) in the assay with OVCAR-8; 19.9 µM (inactive) in the assay with NCI-H23; 20.3 µM (inactive) in the assay on 786-0; 15.3 µM (inactive) with IGROV-1; 24.8 µM (inactive) with KM12; 23 µM (inactive) with COLO 205. In addition, the GI50 in the assay with LXFL 529 is 27.3 µM (inactive); in the assay with SNB-19, 26.1 µM (inactive); with OVCAR-4, 25.6 µM (inactive); with OVCAR-3, 14.4 µM (inactive); with SN12C it was 18.5 µM (inactive); in the assay on HCT-116 it was 13.1 µM (inactive). Further, the GI50 in the assay with UACC-257 was 21.1 µM (inactive); in the assay with CCRF-CEM, 3.94 µM (inactive); in the assay on ACHN, 16.9 µM (inactive); with TK-10 it was 40.1 µM (inactive).

Turning to `CCSCC(N)C(=O)O` (stereo unspecified), the GI50 in the assay with OVCAR-8, in the assay with NCI-H23, with 786-0, in the assay with T47D, in the assay on IGROV-1 and with KM12 was > 100 µM (inactive) in each case. For the same molecule, the GI50 in the assay on COLO 205, in the assay on MDA-N, with SNB-19, in the assay with OVCAR-4, in the assay with NCI-H522 and in the assay on OVCAR-3 was > 100 µM (inactive) throughout. The GI50 in the assay on SN12C, in the assay on HCT-116, in the assay with UACC-257, with CCRF-CEM, with ACHN and in the assay with TK-10 was > 100 µM (inactive) throughout. The GI50 in the assay with NCI/ADR-RES was > 100 µM (inactive).

Take `O=C(CNc1ccc([N+](=O)[O-])cc1)Nn1c(-c2ccccc2)nc2ccccc2c1=O`: the GI50 with OVCAR-8 was 4.24 µM (inactive); with NCI-H23, 2.43 µM (inactive); in the assay on 786-0, 2.4 µM (inactive); with T47D, 3.11 µM (inactive); with IGROV-1 it was 3.64 µM (inactive); in the assay with KM12, 4.56 µM (inactive). Besides, the GI50 in the assay with COLO 205 is 2.28 µM (inactive); in the assay on MDA-N, 3.49 µM (inactive); in the assay on SNB-19 it was 8.75 µM (inactive); in the assay on OVCAR-4, 2.79 µM (inactive); in the assay on NCI-H522, 1.72 µM (inactive); in the assay with OVCAR-3, 6.93 µM (inactive). Also, the GI50 in the assay on SN12C is 2.2 µM (inactive); with HCT-116 it was 3.03 µM (inactive); in the assay with UACC-257, 7.78 µM (inactive); in the assay on CCRF-CEM it was 0.811 µM (active); in the assay on ACHN, 3.95 µM (inactive); with TK-10 it was 6.15 µM (inactive). Also, the GI50 in the assay on NCI/ADR-RES was 2.33 µM (inactive).

In the case of `CO[C@H](c1ccccc1)[C@H](O)[C@](O)(c1ccccc1)P(=O)(OC)OC`, the GI50 in the assay on OVCAR-8, in the assay on NCI-H23, in the assay with 786-0, in the assay with T47D, with IGROV-1 and in the assay with KM12 was > 100 µM (inactive) throughout. Besides, the GI50 in the assay on COLO 205, in the assay with MDA-N, with SNB-19, in the assay with OVCAR-4, in the assay on NCI-H522 and with OVCAR-3 was > 100 µM (inactive) each time. Also, the GI50 with SN12C, with HCT-116, with UACC-257, in the assay with CCRF-CEM, in the assay on ACHN and in the assay on TK-10 was > 100 µM (inactive) in each case. For the same molecule, in the assay with NCI/ADR-RES, the GI50 is > 100 µM (inactive).
